Reference: patent US20260200928A1, “THERAPEUTIC COMPOUNDS” (Sanofi, priority 2022, published 2026)

Target: T1, human IL-17A (Homo sapiens, UniProt Q16552)
T1 construct: purchased R&D Systems 7955-IL/CF
T1 sequence (Q16552 24-155): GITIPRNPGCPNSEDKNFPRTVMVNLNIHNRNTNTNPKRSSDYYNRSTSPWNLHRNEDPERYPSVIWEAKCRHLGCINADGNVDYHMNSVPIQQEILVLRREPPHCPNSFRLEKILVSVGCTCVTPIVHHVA
Test: IL-17A AlphaLISA competition assay (block of IL-17A binding to its receptor IL-17RA)
Details: mean IC50 (n≥2), block of IL-17A binding to IL-17RA
Method in brief: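 Human recombinant IL-17A (7.5 nM stock) pre-incubated 30 min at RT with compound, then IL-17RA/Fc (5 nM stock) added for 90 min; AlphaLISA read with anti-Fc acceptor beads, biotinylated anti-IL-17A antibody (5 nM) and streptavidin donor beads (3 h, dark). IC50 from 4-parameter logistic fit, normalised to DMSO and 4 μM reference inhibitor; n≥2.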

| Compound | IC50 |
| --- | --- |
| CCc1nonc1C(=O)N[C@H](C(=O)Nc1cc([C@@H](COC)N2CC(F)(F)CNC2=O)ccn1)C1CCC(F)(F)CC1 [Example 182, N-((S)-2-((4-((S)-1-(5,5-difluoro-2-oxotetrahydropyrimidin-1(2H)-yl)-2-methoxyethyl)pyridin-2-yl)amino)-1-(4,4-difluorocyclohexyl)-2-oxoethyl)-4-ethyl-1,2,5-oxadiazole-3-carboxamide] | 19 nM |
| Cn1nccc1C(=O)N[C@H](C(=O)Nc1cc(C(NC(=O)CCC(F)(F)F)C2CC2)ccn1)C(C1CC1)C1CC1 (single isomer, unassigned) [Example 38] | 448 nM |
| O=C(CCC(F)(F)F)NC(c1ccnc(NC(=O)[C@@H](NC(=O)c2nonc2C2CC2)C2CCC(F)(F)CC2)c1)C1CC1 (stereo partly drawn) [Example 96, 4-Cyclopropyl-N-((1S)-2-((4-(cyclopropyl(4,4,4-trifluorobutanamido)-methyl)pyridin-2-yl)amino)-1-(4,4-difluorocyclohexyl)-2-oxoethyl)-1,2,5-oxadiazole-3-carboxamide] | 96 nM |
| Cn1nccc1C(=O)N[C@H](C(=O)Nc1cc([C@H](NC(=O)CCC(F)(F)F)C2CC2)ccn1)C1CCC(F)(F)CC1 [Example 107, N—((S)-2-((4-((R)-cyclopropyl(4,4,4-trifluorobutanamido)methyl)pyridin-2-yl)amino)-1-(4,4-difluorocyclohexyl)-2-oxoethyl)-1-methyl-1H-pyrazole-5-carboxamide] | 177 nM |
| CCn1nccc1C(=O)N[C@H](C(=O)Nc1cc([C@@H](COC)N2C[C@@H](C(F)(F)F)NC2=O)ccn1)C1CCC(F)(F)CC1 [Example 201, N-((S)-1-(4,4-difluorocyclohexyl)-2-((4-((S)-2-methoxy-1-((S)-2-oxo-4-(trifluoromethyl)imidazolidin-1-yl)ethyl)pyridin-2-yl)amino)-2-oxoethyl)-1-ethyl-1H-pyrazole-5-carboxamide] | 70 nM |
| CC(C)(C)OC(=O)N[C@H](C(=O)Nc1cc(C(NC(=O)CCC(F)(F)F)C2CC2)ccn1)C1CCC(F)(F)CC1 (single isomer, unassigned; diastereomer 1) [Example 72] | 547 nM |
| CC(C)n1nccc1C(=O)N[C@H](C(=O)Nc1cc(C(NC(=O)CC(F)(F)F)C2CC2)ccn1)C1CCC(F)(F)CC1 (stereo partly drawn) [Example 160, N-((1S)-2-((4-(cyclopropyl(3,3,3-trifluoropropanamido)methyl)pyridin-2-yl)amino)-1-(4,4-difluorocyclohexyl)-2-oxoethyl)-1-isopropyl-1H-pyrazole-5-carboxamide] | 183 nM |
| COCC(NC(=O)CCC(F)(F)F)c1ccnc(NC(=O)C(NC(=O)c2nonc2C2CC2)C2CCC(C)CC2)c1 [Example 243, 4-cyclopropyl-N-((1S)-2-((4-(2-methoxy-1-(4,4,4-trifluorobutanamido)ethyl)pyridin-2-yl)amino)-1-((1r,4S)-4-methylcyclohexyl)-2-oxoethyl)-1,2,5-oxadiazole-3-carboxamide] | 38 nM |
| COC[C@H](c1ccnc(NC(=O)C(NC(=O)c2nonc2C2CC2)C2CCC(C)(F)CC2)c1)N1C[C@@H](C(F)(F)F)NC1=O (single isomer, unassigned) [Example 295] | 25 nM |
| COC[C@H](c1ccnc(NC(=O)[C@@H](NC(=O)c2ccnn2C(C)C)C2CCC(F)(F)CC2)c1)N1CC(F)(F)CNC1=O [Example 181, N-((S)-2-((4-((S)-1-(5,5-difluoro-2-oxotetrahydropyrimidin-1(2H)-yl)-2-methoxyethyl)pyridin-2-yl)amino)-1-(4,4-difluorocyclohexyl)-2-oxoethyl)-1-isopropyl-1H-pyrazole-5-carboxamide] | 102 nM |
| CCc1nonc1C(=O)N[C@@H](COC(C)(C)C(F)(F)F)C(=O)Nc1cc([C@@H](COC)N2C[C@@H](C(F)(F)F)NC2=O)ccn1 [Example 266, 4-ethyl-N-((S)-1-((4-((S)-2-methoxy-1-((S)-2-oxo-4-(trifluoromethyl)imidazolidin-1-yl)ethyl)pyridin-2-yl)amino)-1-oxo-3-((1,1,1-trifluoro-2-methylpropan-2-yl)oxy)propan-2-yl)-1,2,5-oxadiazole-3-carboxamide] | 15 nM |
| Cc1cnn(C)c1Cc1ccnc(NC(=O)[C@@H](NC(=O)OC(C)(C)C)[C@H]2CC[C@H](C)CC2)c1 [Example 51, tert-butyl ((S)-2-((4-((1,4-dimethyl-1H-pyrazol-5-yl)methyl)pyridin-2-yl)amino)-1-((1r,4S)-4-methylcyclohexyl)-2-oxoethyl)carbamate] | 2080 nM |
| CCn1nccc1C(=O)N[C@H](C(=O)Nc1cc(C(COC)NC(=O)CCC(F)(F)F)ccn1)C1CCC(F)(F)CC1 (single isomer, unassigned) [Example 138] | 164 nM |
| Cc1nonc1C(=O)N[C@H](C(=O)Nc1cc(CN2C[C@@H](C(F)(F)F)NC2=O)c(F)cn1)[C@H]1CC[C@H](C)CC1 [Example 62, N-((S)-2-((5-fluoro-4-(((S)-2-oxo-4-(trifluoromethyl)-imidazolidin-1-yl)methyl)-pyridin-2-yl)amino)-1-((1r,4S)-4-methylcyclo-hexyl)-2-oxoethyl)-4-methyl-1,2,5-oxadiazole-3-carboxamide] | 1400 nM |
| COCC(c1ccnc(NC(=O)[C@@H](NC(=O)c2nonc2C2CC2)C2CCC(F)(F)CC2)c1)[C@H]1C[C@@H](C(F)(F)F)NC1=O (single isomer, unassigned) [Example 185, 4-Cyclopropyl-N-((1S)-1-(4,4-difluorocyclohexyl)-2-((4-((R or S)-2-methoxy-1-((3R,5S)-2-oxo-5-(trifluoromethyl)pyrrolidin-3-yl)ethyl)pyridin-2-yl)amino)-2-oxoethyl)-1,2,5-oxadiazole-3-carboxamide] | 46 nM |
| COCC(c1ccnc(NC(=O)[C@@H](NC(=O)c2conc2C(C)C)[C@H]2CC[C@H](C)CC2)c1)N1C[C@@H](C(F)(F)F)NC1=O (single isomer, unassigned) [Example 89] | 11 nM |
| CC(C)(C)OC(=O)N[C@H](C(=O)Nc1cc(CN2C[C@@H](C(F)(F)F)NC2=O)ccn1)[C@H]1CC[C@H](C)CC1 [Example 1, Tert-butyl ((S)-1-((1r,4S)-4-methylcyclohexyl)-2-oxo-2-((4-(((S)-2-oxo-4-(trifluoro-methyl)imidazolidin-1-yl)methyl)pyridin-2-yl)amino)ethyl)carbamate] | 148 nM |
| CC(C)(C)OC(=O)NCC1(c2nocc2C(=O)N[C@H](C(=O)Nc2cc(CN3C[C@@H](C(F)(F)F)NC3=O)ccn2)C2CCC(F)(F)CC2)CC1 [Example 19, Tert-butyl ((1-(4-(((S)-1-(4,4-difluorocyclohexyl)-2-oxo-2-((4-(((S)-2-oxo-4-(trifluoromethyl)imidazolidin-1-yl)methyl)pyridin-2-yl)amino)ethyl)-carbamoyl)isoxazol-3-yl)cyclopropyl)methyl)carbamate] | 843 nM |
| CCc1conc1C(=O)N[C@H](C(=O)Nc1cc([C@@H](COC)N2C[C@@H](C(F)(F)F)NC2=O)ccn1)C1CCC(Cl)CC1 (stereo partly drawn) [Example 314, N-((1S)-1-(4-chlorocyclohexyl)-2-((4-((S)-2-methoxy-1-((S)-2-oxo-4-(trifluoromethyl)imidazolidin-1-yl)ethyl)pyridin-2-yl)amino)-2-oxoethyl)-4-ethylisoxazole-3-carboxamide] | 58 nM |
| O=C(CCC(F)(F)F)NC(c1ccnc(NC(=O)[C@@H](NC(=O)c2nonc2C2CC2)C(C2CC2)C2CC2)c1)C1CC1 (single isomer, unassigned) [Example 39] | 138 nM |
| CC(C)(C)OC(=O)N[C@H](C(=O)Nc1cc(C(NC(=O)CCC(F)(F)F)C2CC2)ccn1)C1CCC(F)(F)CC1 (single isomer, unassigned) [Example 74] | 2620 nM |
| COCC(NC(=O)CCC(F)(F)F)c1ccnc(NC(=O)[C@@H](NC(=O)c2ccnn2CC2CC2)C2CCC(F)(F)CC2)c1 (single isomer, unassigned) [Example 142] | 203 nM |
| CC(c1ccnc(NC(=O)[C@@H](NC(=O)c2ccnn2C)C2CCC(F)(F)CC2)c1)N1C[C@@H](C(F)(F)F)NC1=O (single isomer, unassigned) [Example 171, N-((1S)-1-(4,4-difluorocyclohexyl)-2-oxo-2-((4-((R or S)-1-((S)-2-oxo-4-(trifluoromethyl)imidazolidin-1-yl)ethyl)pyridin-2-yl)amino)ethyl)-1-methyl-1H-pyrazole-5-carboxamide] | 67 nM |
| COC[C@H](c1ccnc(NC(=O)[C@@H](NC(=O)c2nonc2C2CC2)C(C2CC2)C2CC2)c1)N1C[C@@H](C(F)(F)F)NC1=O [Example 227, 4-cyclopropyl-N-((S)-1,1-dicyclopropyl-3-((4-((S)-2-methoxy-1-((S)-2-oxo-4-(trifluoromethyl)imidazolidin-1-yl)ethyl)pyridin-2-yl)amino)-3-oxopropan-2-yl)-1,2,5-oxadiazole-3-carboxamide] | 20 nM |
| COCC(NC(=O)CCC(F)(F)F)c1ccnc(NC(=O)[C@@H](NC(=O)c2ccnn2C(C)C)C2CCC(F)(F)CC2)c1 (single isomer, unassigned) [Example 145] | 1360 nM |
| COC[C@H](c1ccnc(NC(=O)[C@@H](NC(=O)c2nonc2C2CC2)C2CCC(F)(F)CC2)c1)N1C[C@@H](C(F)(F)F)NC1=O [Example 200, 4-cyclopropyl-N-((S)-1-(4,4-difluorocyclohexyl)-2-((4-((S)-2-methoxy-1-((S)-2-oxo-4-(trifluoromethyl)imidazolidin-1-yl)ethyl)pyridin-2-yl)amino)-2-oxoethyl)-1,2,5-oxadiazole-3-carboxamide] | 18 nM |
| COC[C@H](c1ccnc(NC(=O)C(NC(=O)c2nonc2C2CC2)C2CCC(C)(F)CC2)c1)N1C[C@@H](C(F)(F)F)NC1=O (single isomer, unassigned) [Example 297] | 4800 nM |
